Measurements taken from patent publication US6455590B1, “Deprenyl compounds for treatment of glaucoma” (University of Toronto Innovations.Foundation, priority 1995, dated 2002).

Legend:
[1] = system: retinal ganglion cells projecting to the superior colliculus (RGC^SCs) / RGCL neuronal cell bodies; assay: Optic nerve crush in rats: counts of Nissl-stained and Fluoro-Gold-labelled cell bodies in the retinal ganglion cell layer; type: in vivo; conditions: for counts of RGCL neuronal cell bodies (RGCLncbs) per mm length of retinal cross-section: Nissl stain, FIG. 1
Description: All animals were handled according to the Declaration of Helsinki and The Guiding Principles in the Care and Use of Animals. […] The injections were delivered from a 10 microliter Hamilton syringe over a period of fifteen minutes.
It has been reported that 40-50% of the neurons whose cell bodies are located in the retinal ganglion cell layer (RGCL) of the rat send an axon to the optic nerve and are RGCs (Cowey et al. (1979) Exp. Brain Res. 35, 457-64; Perry V. H. (1981) Neuroscience 6, 931-44: and Linden et al. (1989) Brain Res. 272, 145-149). […] Most RGCs (>95%) in rats send their axons to the SC with as many as 10% also sending branches to the lateral geniculate body (Cowey et al. (1979) Exp. Brain Res. 35, 457-64).
Four days were allowed for the retrograde transport of the FG to the RGC^SCs cell bodies and then the left optic nerve of the rats was exposed and crushed by applying the tips of Dumont number 5 forceps to the nerve immediately behind the globe for ten seconds. Careful attention was used to avoid the central retinal artery. Each nerve was crushed three times at the same site. Following the crushes, the nerve was examined with the aid of an operating microscope to ensure that the axonal component of the nerve was divided into two clearly separated stumps surrounded by an unbroken dural sheath. Retinal artery patency was confirmed by direct ophthalmoscopy.
One group of eight rats received (−)-deprenyl (1 mg/kg) by intraperitoneal (IP) injection every two days for a fourteen day period beginning at the time of optic nerve crush. The remaining group of eight rats received IP injections of saline on the same schedule. Fourteen days after the optic nerve crush all sixteen rats were euthanized with an overdose of somnotol and perfused transcardially with 4% paraformaldehyde in phosphate buffer. The brains and retinas were immersed in 20% sucrose for twenty four hours and then frozen in −70 degrees C methylbutane. Serial […] sections were cut through the upper brain stem and diencephalon of the animals and viewed under fluorescence microscopy to determine the location and extent of the stereotactic injections of FG. Serial […] sections of the retinas were cut and every third section was Nissl stained. In order to detect even low level FG fluorescence in neuronal cell bodies or processes, the FG labelled brain sections and the retinal sections were examined with the aid of a Hamarmatsu intensification camera that allowed the fluorescent images to be digitized using a Matrox frame grabber controlled by image analysis software (Universal Metamorph). This allowed for the creation of computer images of neuronal cell bodies containing FG in the sections taken from areas of the stereotactic injections and sections taken through each of the retinas.
About 25 sections were chosen randomly from the serial sections taken from each retina. Sections were only chosen from the middle 70% of the serial sections where section length exceeded 6 mm. Nissl stained cell bodies in the RGCL were counted at 1000× magnification under oil immersion on a Leitz Orthoplan microscope. RGCL somata were only counted if they contained a well defined nucleus. The cross sectional length of the ganglion cell layer for each section was measured by transferring the retinal section image into a computer using a CCD camera (Dage Ltd.) and IPPLUS 2.1 software (Media Cybernetics). The number of RGCL neuronal cell bodies (RGCLncbs) per mm length of retinal crossection was calculated and were pooled for each of the four lesion/treatment groups (uncrushed-saline, uncrushed-deprenyl, crushed-saline and crushed-deprenyl).
A similar group of sections were randomly chosen from one of the two remaining series of retinal sections. […]

[2] = Stability of deprenyl as a function of the pH of the medium; type: physicochemical; conditions: pH about 3-5 versus pH about 7
Description: The stability of deprenyl can be affected by the pH of the medium in which the deprenyl is formulated. […] Therefore, when formulating a deprenyl compound in a pharmaceutical composition, it is preferred that the deprenyl compound be maintained at a suitable pH. In preferred embodiments, a pharmaceutical composition of the invention has a pH in the range of about 3 to about 5, more preferably about 3 to about 4. Furthermore, ethyl alcohol is a preferred solvent for improving stability of deprenyl. Thus, in certain embodiments, alcoholic or aqueous alcoholic media are preferred for the pharmaceutical compositions of the invention.

[3] = system: cell death; assay: Animal and cell-culture studies of prevention of cell death with the P450 inhibitor Proadifen; conditions: co-administration of the P450 inhibitor Proadifen
Description: It is believed that certain deprenyl compounds can be at least partially metabolized in vivo after administration to a subject. For example, (−)-deprenyl can be metabolized by the liver to (−)-desmethyldeprenyl, as well as (−)-methamphetamine and (−)-amphetamine, after oral administration. The hepatic metabolism of (−)-deprenyl can be inhibited by administration of a P450 inhibitor such as Proadifen. […] It is presently believed that (−)-methamphetamine and (−)-amphetamine are inhibitors of the cell-rescuing activity of deprenyl compounds. […] Absence of MAO inhibitor activity may in fact provide a drug with fewer side effects.

SMILES | counts of RGCL neuronal cell bodies (RGCLncbs) per mm length of retinal cross-section ([1]; crushed optic nerve, 14 days after crush, (−)-deprenyl 1 mg/kg IP every two days) | RGC^SCs as percentage of the mean value of the distribution for the uncrushed saline retinas ([1]; crushed optic nerve, 14 days, crushed saline 3.0%, FIG. 3) | numbers of neuronal cell bodies/mm in the RGCL as average percent of those in uncrushed saline retinae ([1]; crushed optic nerve, 14 days, crushed saline 46%) [%] | slope of FG labelled versus Nissl stained cell body counts ([1]; crushed retinas, FIG. 2) | mean ratio of FG labelled to Nissl stained somata ([1]; crushed retinas, crushed saline 0.003) | survival of RGCs at fourteen days ([1]; crushed retinas, estimated assuming 40-50% of RGCL neurons do not send axons to the optic nerve, crushed saline less than 10%) | counts of RGCL neuronal cell bodies (RGCLncbs) per mm length of retinal cross-section ([1]; uncrushed optic nerve, (−)-deprenyl 1 mg/kg IP every two days for 14 days) | stability depending on pH of the medium [2] | effect of Proadifen on cell-rescuing activity (prevention of cell death) [3]
C#CCN(C)C(C)Cc1ccccc1 (single isomer, unassigned; (-)) [(−)-deprenyl, N,α-dimethyl-N-2-propynylphenethylamine] | 32.60+/−9.94 | 36.9+/−11.2% | 65 | 0.219+/−0.019 | 0.245+/−0.055 | 30-40% | 48.39+/−8.48 /mm | more stable at a pH in the range of about 3-5 than at a pH of about 7 | Proadifen reduces the ability of (−)-deprenyl to prevent cell death
C#CCN[C@H](C)Cc1ccccc1 [(−)-desmethyldeprenyl] |  |  |  |  |  |  |  |  | does not block the cell-rescuing activity
